From ChEMBL document CHEMBL2412962, “Human acidic mammalian chitinase as a novel target for anti-asthma drug design using in silico screening” (Bioorg Med Chem, 2013)

Molecular target: Acidic mammalian chitinase (Homo sapiens, UniProt Q9BZP6)
Test: Inhibition of His-tagged recombinant human acidic mammalian chitinase expressed in Escherichia coli Rosetta-gami 2 (DE3) using 4MU-(GlcNAc)2 as substrate assessed as production of 4-methylumbelliferone measured every 5 mins by fluorescence assay

Acidic mammalian chitinase, sequence (Q9BZP6 whole entry): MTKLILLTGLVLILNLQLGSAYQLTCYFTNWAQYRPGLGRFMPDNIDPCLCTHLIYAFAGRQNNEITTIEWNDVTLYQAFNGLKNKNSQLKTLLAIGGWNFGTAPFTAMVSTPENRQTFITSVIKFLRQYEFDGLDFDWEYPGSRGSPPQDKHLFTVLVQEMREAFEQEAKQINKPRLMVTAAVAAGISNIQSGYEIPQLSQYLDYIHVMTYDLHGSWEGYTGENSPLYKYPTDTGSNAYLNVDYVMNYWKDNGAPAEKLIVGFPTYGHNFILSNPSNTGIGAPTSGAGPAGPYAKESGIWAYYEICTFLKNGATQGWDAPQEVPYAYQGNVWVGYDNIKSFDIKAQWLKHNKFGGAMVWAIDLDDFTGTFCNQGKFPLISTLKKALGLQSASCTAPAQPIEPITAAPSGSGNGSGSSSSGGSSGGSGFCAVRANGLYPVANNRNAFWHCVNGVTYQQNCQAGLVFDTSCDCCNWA

SMILES: CN=C(S)NNC(=O)c1oc2nc(-c3ccccc3)cc(C)c2c1N
- IC50: 30 µM
